The record followed here is ChEMBL document CHEMBL6078614, “Privileged small molecules against neglected tropical diseases: A perspective from structure activity relationships” (Eur J Med Chem, 2024).

Assay [1] relates to Trypanosoma cruzi. Kind of assay: Antitrypanosomal activity against trypomastigote form of Trypanosoma cruzi Y assessed as inhibition of parasite viability. Type of assay: functional, organism-based.
Assay [2] has as its system Leishmania donovani. Kind of assay: Antileishmanial activity against Leishmania donovani amastigotes infected in J774 macrophage assessed as inhibition of parasite growth incubated for 48 hrs by luciferase assay. Type of assay: functional, organism-based. The settings on record: J774, 48 h.
The next assay has as its system HepG2. Kind of assay: Cytotoxicity against human HepG2 cells assessed as reduction in cell viability by MTT assay. In kind it is functional.
Assay [3] deals with Leishmania mexicana. The assay is described as follows: Antileishmanial activity against Leishmania mexicana promastigotes assessed as reduction in parasite growth by alamar-blue staining based analysis. In kind it is functional, organism-based. On the technique in general: Alamar Blue is a resazurin reagent that responds to reducing activity.
For assay [4], the system named is Trypanosoma cruzi. The assay is described as follows: Antiprotozoal activity against Trypanosoma cruzi epimastigotes assessed as reduction in parasite growth. In kind it is functional, organism-based.
Another assay concerns Leishmania amazonensis. The assay is described as follows: Antileishmanial activity against Leishmania amazonensis amastigotes assessed as parasite growth inhibition. In kind it is functional, organism-based.
For assay [5], the system named is Leishmania donovani. The assay is described as follows: Antileishmanial activity against amastigote form of Leishmania donovani infected in BALB/c mouse assessed as inhibition of parasite growth in spleen at 25 mg/kg, po measured after 5 days by geimsa staining based analysis relative to control. The settings on record: time 5 day. Type of assay: functional. More on the design: scale not given: the % may be the effect or the level left.

Assay [6] deals with Leishmania major. The assay is described as follows: Antileishmanial activity against Leishmania major. Type of assay: functional, organism-based.
Assay [7] relates to Leishmania major. The assay is described as follows: Antileishmanial activity against Leishmania major promastigotes assessed as inhibition of parasite growth incubated for 48 hrs by resazurin dye based assay. Type of assay: functional, organism-based.
For a further assay, the target named is Phosphodiesterase 4 (Homo sapiens, UniProt P27815+Q08499+Q07343+Q08493). The assay is described as follows: Inhibition of PDE4 (unknown origin). In kind it is protein assay.
Another assay relates to Entamoeba histolytica. Kind of assay: Antiparasitic activity against Entamoeba histolytica. In kind it is functional, organism-based.
A short description of assay [8]: Inhibition of Entamoeba histolytica O-acetylserine sulfhydrylase.
For assay [9], the system named is Trypanosoma brucei rhodesiense. Kind of assay: Antitrypanosomal activity against Trypanosoma brucei rhodesiense. In kind it is functional, organism-based.
For another assay, the system named is Leishmania infantum. The assay is described as follows: Inhibition of Leishmania infantum Arginase expressed in Escherichia coli BL21 (DE3) at 50 uM by enzymatic assay relative to control.
Another assay has as its system Leishmania chagasi. Kind of assay: Antileishmanial activity against Leishmania chagasi. In kind it is functional, organism-based.
Assay [10] concerns Leishmania major. The assay is described as follows: Antileishmanial activity against Leishmania major amastigotes assessed as inhibition of parasite growth incubated for 48 hrs by alamar blue reagent based ELISA. Type of assay: functional, organism-based.
Assay [11] has as its system Leishmania major. Kind of assay: Antileishmanial activity against Leishmania major promastigotes assessed as inhibition of parasite growth. In kind it is functional, organism-based.
Assay [12] deals with Trypanosoma cruzi. The assay is described as follows: Antitrypanosomal activity against trypomastigote form of Trypanosoma cruzi Y assessed as inhibition of parasite viability incubated for 24 hrs by light microscopy. Type of assay: functional, organism-based.
In the next assay the test system is L929. The assay is described as follows: Cytotoxicity against mouse L929 cells assessed as reduction in cell viability. Type of assay: functional.
The subject of assay [13] is Leishmania donovani. Kind of assay: Antileishmanial activity against Leishmania donovani promastigotes measured after 48 hrs by MTT assay. In kind it is functional, organism-based. In general terms: Tetrazolium dyes change colour on reduction, which living cells bring about.
The test system of assay [14] is Leishmania mexicana. Kind of assay: Antileishmanial activity against Leishmania mexicana promastigotes.
Assay [15] concerns Trypanosoma cruzi. Kind of assay: Antitrypanosomal activity against Trypanosoma cruzi Tulahuen amastigotes. In kind it is functional, organism-based.

Converted amounts (≈) assume the structure as drawn.

The term IC50 denotes the concentration that inhibits the measured activity by half. For `Clc1ccc(-n2cc(C3=NCCS3)cn2)c(Cl)c1`, the IC50 in the assay with Trypanosoma cruzi [1] was 0.4 µM.

Usually CC50 stands for the concentration at which the toxic effect on the cells reaches its halfway point. For `O=[N+]([O-])c1c(CS(=O)(=O)c2ccccc2)nc2c(Sc3ccc(Cl)cc3)cc(Cl)cn12`, the half-inhibitory concentration (IC50) with Leishmania donovani [2] came out at 1.3 µM. The CC50 in the assay on HepG2 was greater than 100 µM.

As to `COc1ccc2nc(-c3ccccc3)cnc2c1`, the IC50 in the assay with Leishmania mexicana [3] was found to be 50.9 µM. In the case of `O=C(Nc1ccc2c(c1)CN(c1ccc(Br)cc1)C2=O)N1CCN(c2ccc(F)cc2)CC1`, the IC50 in the assay on Trypanosoma cruzi [4] was found to be 0.05 µM.

For the molecule `O=C1c2ccccc2C(=O)N1CCn1cc(-c2ccccc2)nn1`, the IC50 in the assay on Leishmania amazonensis came to 125 µM.

For the molecule `O=C(Cn1nnc2ccccc21)NNCc1ccccc1Cl`, in the assay with Leishmania donovani [5], the Activity came out at 89.4%. In the assay on Leishmania major [6], `Cc1sc(NC(=S)NC(=O)c2cccc(Cl)c2)nc1-c1ccccc1` came in with a half-inhibitory concentration (IC50) of 38.5 mg/L.

Turning to `C[C@@H]1[C@H](O)[C@@H](C)/C=C/C=C/C=C/C=C/C=C/C=C/C=C/[C@H](O[C@@H]2O[C@H](C)[C@@H](O)[C@H](N)[C@@H]2O)C[C@@H]2O[C@](O)(C[C@@H](O)C[C@@H](O)[C@H](O)CC[C@@H](O)C[C@@H](O)CC(=O)O[C@H]1C)C[C@H](O)[C@H]2C(=O)O` [AMPHOTERICIN B], the IC50 in the assay on Leishmania major [7] was 0.19 mg/L (≈ 0.206 µM). In general, pIC50 refers to the IC50 on a negative log10 scale, so that one unit is a factor of ten. As for `COc1ccc(C2=NN(C(C)C)C(=O)C2(C)C)cc1-c1cccnc1`, at Phosphodiesterase 4, the negative-log IC50 (pIC50) amounted to 6.4. In the assay on Entamoeba histolytica, `CC(C)(Oc1ccc(Cl)cc1)C(=O)O` [CLOFIBRIC ACID] returned a concentration for half-maximal inhibition (IC50) of 0.145 µM. With `O=[N+]([O-])c1ccc2nc([S+]([O-])Cc3ccccn3)[nH]c2c1` (stereo not drawn), the concentration for half-maximal inhibition (IC50) in [8] (read-out: IC50) was 11 µM. As a reminder, the EC50 is the concentration needed to bring the measured effect to its halfway point. As for `COC(=O)c1nc(NC(=O)c2cc(NC(=O)c3nc(NC(=O)OC(C)(C)C)sc3C(C)C)cn2C)sc1C(C)C`, in assay [9], the EC50 was 11.8 µM. As to `O=C(Nc1nc2cc(Cl)ccc2o1)C(c1ccccc1)c1ccccc1`, the half-maximal inhibitory concentration (IC50) with Leishmania donovani [2] came out at 9.1 µM. Take `Clc1ccc(-n2cc(C3=NCCS3)cn2)cc1Cl`: the 50% inhibitory concentration (IC50) in the assay with Trypanosoma cruzi [1] was 1.9 µM.

The inhibition is the relative decrease from the control value, in per cent. Take `O=C(NCCNc1nccc(-c2c(-c3cccc(O)c3)nc3sccn23)n1)c1ccc(N2CCOCC2)c(C(F)(F)F)c1`: the inhibition in the assay with Leishmania infantum came out at 67%. The 50% inhibitory concentration (IC50) in the assay on Leishmania chagasi worked out at 32.4 µM. For the molecule `CN1C(=N)N/C(=C/c2c[nH]c3cc(Br)ccc23)C1=O`, the 50% inhibitory concentration (IC50) in the assay on Trypanosoma cruzi [1] came out at 62 µM. `CC(C)(C)Nc1c(-c2cc3ccccc3n3nnnc23)nc2sc(C#N)cn12` gave an IC50 in [8] of 140 mg/L. For the molecule `NNS(=O)(=O)c1ccc([N+](=O)[O-])o1`, the IC50 in the assay on Leishmania major [10] came out at 5.75 µM; in the assay on Leishmania major [11], 1.85 µM. Molecule `COc1ccc(/C=N/NC(N)=S)cc1` had an IC50 with Leishmania chagasi of 1.6 µM.

Take `Cc1c(OCC(F)(F)F)ccnc1C[S+]([O-])c1nc2ccc([N+](=O)[O-])cc2[nH]1` (stereo not drawn): the IC50 in [8] (read-out: IC50) came to 15 µM. For `O=c1[nH]c2cc(Cl)c(Cl)cc2c(=O)n1-c1ccccc1`, the IC50 with Leishmania mexicana [3] came to 6.05 µM. Regarding `Cn1c(/C=C/C(=O)NO)ccc1/C=C/C(=O)c1cccc(Cl)c1`, the concentration for a half-maximal effect (EC50) in the assay with Trypanosoma cruzi [12] is 7 µM. Besides, the CC50 in the assay on L929 was found to be 40 µM.

With `O=C(O)Cc1ccccc1Nc1c(Cl)cccc1Cl` [DICLOFENAC], the IC50 in the assay on Entamoeba histolytica came out at 0.22 µM.

On to `Cc1cccnc1-n1cccc1C(=O)c1ccc(F)cc1`, for which the results for the IC50 with Leishmania donovani [13] and in the assay on Leishmania amazonensis were 7.78 µM and 16.9 µM, respectively. `CC1CS(=O)(=O)CCN1/N=C/c1ccc([N+](=O)[O-])o1` (stereo not drawn) [NIFURTIMOX] yielded an IC50 with Leishmania mexicana [14] of 9.32 µM. Consider `O=[N+]([O-])c1ccc(-c2nnc(N3CCC(O)CC3)s2)s1`, for which it took 27 µM to reach half-maximal inhibition with Leishmania major [6] (IC50). As to `Cc1ccn2c(C(=O)N3CCN(CCn4cc(-c5ccc(C(C)(C)C)cc5)nn4)CC3)c(C)nc2c1`, the IC50 in the assay with Leishmania major [10] is 15.1 µM. Molecule `N/C(S)=N/N=C/c1cccc(Cl)c1Cl` yielded a half-inhibitory concentration (IC50) in the assay on Leishmania chagasi of 2.2 µM.

For `O=[N+]([O-])c1ccc(-c2nnc(NCCCO)s2)o1`, in the assay on Leishmania major [6], the IC50 was 18 µM.

In the assay with Leishmania chagasi, `N=C(N)N/N=C/c1cccc(Cl)c1Cl` yielded an IC50 of 7.27 µM. In the assay on Entamoeba histolytica, `Cc1ncc([N+](=O)[O-])n1CCOC(=O)NC1CCCCC1` had a half-maximal inhibitory concentration (IC50) of 0.46 µM. In turn, `COc1ccc2cc([C@H](C)C(=O)O)ccc2c1` [NAPROXEN] displayed an IC50 with Entamoeba histolytica of 0.14 µM. Molecule `c1cncc(Nc2nccc(-c3cnn4ncccc34)n2)c1` had a concentration giving a half-maximal response (EC50) in the assay on Trypanosoma cruzi [15] of 7.7 µM.
